Source: US6573382B2, “Polymorphic forms of 6-[4-(1-cyclohexyl-1H-tetrazol-5-yl)butoxy]-3,4-dihydro-2(1H)-quinolinone” (priority 2001, dated 2003)

Assays:
[1] = DSC reheating of disturbed (scratched/stressed) sample: solid state phase transformation to Form A; type: physicochemical; details: DSC heating from 30° C. to approximately 200° C. at 10° C. per minute
Procedure: DSC data were generated using a Mettler-Toledo DSC 821^e (Columbus, Ohio) with a Julabo FT900 intercooler chiller (Julabo Company; Allentown, Pa.). In general, samples were analyzed in a vented, sealed aluminum pan. Because the endothermic peak may vary depending upon the rate of heating and the calibration and precision of the instrument, with the amount of peak variation dependent upon the heating rate used, all thermograms included herein were run under the same, consistent conditions: heating at 10° C. per minute under a nitrogen purge at 40 mL/minute. The resultant sample of Example 1A was disturbed with scratching, which caused the cilostazol sample to undergo a solid state phase transformation at approximately 119° C. followed by an endotherm of melt at approximately 160° C. (Form A) during heating by DSC from 30° C. to approximately 200° C. at 10° C. per minute. When the sample is stressed and reheated (as detailed in Example 2A), the sample undergoes a solid state phase transformation at approximately 147° C. followed by an endotherm of melt at about 160° C. (Form A) during heating by DSC from 30° C. to approximately 200° C. at 10° C. per minute. This disturbance of sample is believed to induce nucleation which preferentially causes Form A of cilostazol to form upon heating.

[2] = stability of the crystalline form; type: physicochemical
[3] = DSC thermogram of combined Forms A, B and C (melting points compared, solubility inferred); type: physicochemical; details: 10° C. per minute, nitrogen purge, FIG. 8
Procedure: DSC data were generated using a Mettler-Toledo DSC 821^e (Columbus, Ohio) with a Julabo FT900 intercooler chiller (Julabo Company; Allentown, Pa.). In general, samples were analyzed in a vented, sealed aluminum pan. Because the endothermic peak may vary depending upon the rate of heating and the calibration and precision of the instrument, with the amount of peak variation dependent upon the heating rate used, all thermograms included herein were run under the same, consistent conditions: heating at 10° C. per minute under a nitrogen purge at 40 mL/minute.
FIG. 8 illustrates a DSC thermogram for the combination of Form A, Form B and Form C having a second heating cycle with a maximum temperature of about 110° C. with a holding time of about 30 minutes. The peaks in the third heating cycle show a Form A to Form B to Form C peak area ratio of approximately 8:2:1, respectively, with the relative amount of Form A, Form B and Form C further variable on the heat of enthalpy of each polymorphic form.

[4] = bioavailability of the polymorphic form; details: Form A as prepared by the procedures of the '479 patent
[5] = aqueous solubility of the polymorphic form; type: physicochemical; details: Form A as prepared by the procedures of the '479 patent

O=C1CCc2cc(OCCCCc3nnnn3C3CCCCC3)ccc2N1 [Form B, 6-[4-(1-cyclohexyl-1H-tetrazol-5-yl)butoxy]-3,4-dihydro-2(1H)-quinolinone]
temperature of solid state phase transformation to Form A [1]: approximately 119 °C | stability of the polymorphic form [2]: stable | solubility relative to Form A, suggested by lower melting point in DSC [3]: more soluble than Form A

O=C1CCc2cc(OCCCCc3nnnn3C3CCCCC3)ccc2N1 [Form C, 6-[4-(1-cyclohexyl-1H-tetrazol-5-yl)butoxy]-3,4-dihydro-2(1H)-quinolinone]
temperature of solid state phase transformation to Form A [1]: approximately 147 °C | stability of the polymorphic form [2]: stable | solubility relative to Form A, suggested by lower melting point in DSC [3]: more soluble than Form A

O=C1CCc2cc(OCCCCc3nnnn3C3CCCCC3)ccc2N1 [Form A, 6-[4-(1-cyclohexyl-1H-tetrazol-5-yl)butoxy]-3,4-dihydro-2(1H)-quinolinone]
bioavailability [4]: low bioavailability | aqueous solubility [5]: low aqueous solubility
